Each structure is given as a SMILES string.

This data set in a line: cn = amount concentration of the nth substance listed, in mol/dm3. To be noted: 298.15 K, 101.3 kPa, Liquid, Taylor dispersion method.

Consider `NCC(=O)O` [2-aminoacetic acid] + O, for which the binary diffusion coefficient is 1.06e-09 m2/s (c1 = 0.005) and 1.04e-09 m2/s (c1 = 0.1).

The record behind these values is the NIST ThermoML archive (doi:10.1016/j.jct.2018.03.014).
